Experimental data taken from US20210186960A1, “MODULATORS OF INDOLEAMINE 2,3-DIOXYGENASE” (GLAXOSMITHKLINE INTELLECTUAL PROPERTY DEVELOPMENT LIMITED, priority 2017, published 2021).

What was measured:
[1] = tested on: human peripheral blood mononuclear cells (PBMC); assay: PBMC cytotoxicity assay (CellTiter-Glo); format: cell-based; conditions: pCC50, CellTiter-Glo, stimulated human PBMC, 2 days
Procedure: Compounds of the present invention were tested via high-throughput cellular assays utilizing detection of kynurenine via mass spectrometry and cytotoxicity as end-points. For the mass spectrometry and cytotoxicity assays, human peripheral blood mononuclear cells (PBMC) (PB003F; AllCells®, Alameda, Calif.) were stimulated with human interferon-γ (IFN-γ) (Sigma-Aldrich Corporation, St. Louis, Mo.) and lipopolysaccharide from Salmonella minnesota (LPS) (Invivogen, San Diego, Calif.) to induce the expression of indoleamine 2, 3-dioxygenase (IDO1). Compounds with IDO1 inhibitory properties decreased the amount of kynurenine produced by the cells via the tryptophan catabolic pathway. Cellular toxicity due to the effect of compound treatment was measured using CellTiter-Glo® reagent (CTG) (Promega Corporation, Madison, Wis.), which is based on luminescent detection of ATP, an indicator of metabolically active cells.
In preparation for the assays, test compounds were serially diluted 3-fold in
DMSO from a typical top concentration of 1 mM or 5 mM and plated at 0.5 μL in 384-well, polystyrene, clear bottom, tissue culture treated plates with lids (Greiner Bio-One, Kremsmünster, Austria) to generate 11-point dose response curves. Low control wells (0% kynurenine or 100% cytotoxicity) contained either 0.5 μL of DMSO in the presence of unstimulated (−IFN-γ/−LPS) PBMCs for the mass spectrometry assay or 0.5 μL of DMSO in the absence of cells for the cytotoxicity assay, and high control wells (100% kynurenine or 0% cytotoxicity) contained 0.5 μL of DMSO in the presence of stimulated (+IFN-γ/+LPS) PBMCs for both the mass spectrometry and cytotoxicity assays.
Frozen stocks of PBMCs were washed and recovered in RPMI 1640 medium (Thermo Fisher Scientific, Inc., Waltham, Mass.) supplemented with 10% v/v heat-inactivated fetal bovine serum (FBS) (Thermo Fisher Scientific, Inc., Waltham, Mass.), and 1× penicillin-streptomycin antibiotic solution (Thermo Fisher Scientific, Inc., Waltham, Mass.). The cells were diluted to 1,000,000 cells/mL in the supplemented RPMI 1640 medium. 50 μL of either the cell suspension, for the mass spectrometry assay, or medium alone, for the cytotoxicity assay, were added to the low control wells, on the previously prepared 384-well compound plates, resulting in 50,000 cells/well or 0 cells/well respectively. IFN- y and LPS were added to the remaining cell suspension at final concentrations of 100 ng/ml and 50 ng/ml respectively, and 50 μL of the stimulated cells were added to all remaining wells on the 384-well compound plates. The plates, with lids, were then placed in a 37 °C, 5% CO2 humidified incubator for 2 days.
Following incubation, the 384-well plates were removed from the incubator and allowed to equilibrate to room temperature for 30 minutes. For the cytotoxicity assay, CellTiter-Glo® was prepared according to the manufacturer's instructions, and 40 μL were added to each plate well. After a twenty minute incubation at room temperature, luminescence was read on an EnVision® Multilabel Reader (Perkin Elmer Inc., Waltham, Mass.). For the mass spectrometry assay, 10 μL of supernatant from each well of the compound-treated plates were added to 40 μL of acetonitrile, containing 10 μM of an internal standard for normalization, in 384-well, polypropylene, V-bottom plates (Greiner Bio-One, Kremsmunster, Austria) to extract the organic analytes. Following centrifugation at 2000 rpm for 10 minutes, 10 μL from each well of the acetonitrile extraction plates were added to 90 μL of sterile, distilled H2O in 384-well, polypropylene, V-bottom plates for analysis of kynurenine and the internal standard on the RapidFire 300 (Agilent Technologies, Santa Clara, Calif.) and 4000 QTRAP MS (SCIEX, Framingham, Mass.). MS data were integrated using Agilent Technologies' RapidFire Integrator software, and data were normalized for analysis as a ratio of kynurenine to the internal standard. […]

[2] = Rat oral PK studies of prodrugs at 5 mg/kg; format: in vivo; conditions: after PO dose of 5 mg/kg example 7 in male Wistar Han rat; analyte as labelled
Procedure: Rat oral PK studies of prodrugs at 5 mg/kg dose (solution in 100% (40 mg oleic acid+25mg Tween 80+2 mL of PBS/fresh) at 0.5 mg/mL).

- DNAUC0_20 [2]: 126.6 ng·h/mL
SMILES: CC(C)CN(c1ccc([C@H](C)CC(=O)O)cc1Nc1cnc(Cl)cn1)C1CCOCC1 [intermediate C4]
- PBMC TOX PXC50 [1]: <5
